Laboratory results reported in patent publication US20240091185A1, “COMPOSITION FOR IMPROVING COGNITIVE FUNCTION, AGENT FOR IMPROVING COGNITIVE FUNCTION, AND FOOD FOR IMPROVING COGNITIVE FUNCTION” (AJINOMOTO CO., INC., priority 2021, published 2024).

Columns and labels:
Format in all cases: in vivo, mouse
[1] = tested on: Galanin and GMAP prepropeptide (Gal) gene; assay: Hippocampal gene expression level by RNA-seq (TPM), Gal; details: oral once a day for 13 days (Example 1 3 g/kg, Comp. Ex. 4 2 g/kg, Comp. Ex. 5 1 g/kg); Dunnett; p<0.05 for Example 1
Description: (§1) At that time, as comparison samples, 2 g of glycine was used as the agent of Comparative Example 4, and 1 g of L-serine was used as the agent of Comparative Example 5, and the action on gene expression in the mouse hippocampus was similarly examined.
(§2) The agent of Comparative Example 4 was suspended in 0.5 wt % methylcellulose aqueous solution at a concentration of 0.2 g/mL, and 10 mL (2 g/kg body weight) was orally administered per kg of mouse body weight once a day for 13 consecutive days to the group to be administered with the agent of Comparative Example 4 (LPS+Gly2).
as §2, with “5” for “4”, “0.1” for “0.2”, “(1” for “(2”, “5 (LPS+L-Ser1).” for “4 (LPS+Gly2).”
(§3) Hippocampal tissue was collected from each group of mice that had been administered with each suspension or vehicle shown in Table 5 for 13 consecutive days, total RNA was extracted from each individual separately, and RNA sequencing (RNA-seq) was performed. […] Samples from individuals suspected of being contaminated at the time of tissue collection were excluded from analysis.

[2] = tested on: Thyroid stimulating hormone receptor (TShr) gene; assay: Hippocampal gene expression level by RNA-seq (TPM), Tshr; details: oral once a day for 13 days (Example 1 3 g/kg, Comp. Ex. 4 2 g/kg, Comp. Ex. 5 1 g/kg); Dunnett; p<0.05 for Example 1
Description: as §1, §2
as §2, with “5” for “4”, “0.1” for “0.2”, “(1” for “(2”, “5 (LPS+L-Ser1).” for “4 (LPS+Gly2).”
as §3

[3] = tested on: D-site of albumin promoter (albumin D-box) binding protein (Dbp) gene; assay: Hippocampal gene expression level by RNA-seq (TPM), Dbp; details: oral once a day for 13 days (Example 1 3 g/kg, Comp. Ex. 4 2 g/kg, Comp. Ex. 5 1 g/kg); Dunnett; p<0.05 for Example 1
Description: as §1, §2
as §2, with “5” for “4”, “0.1” for “0.2”, “(1” for “(2”, “5 (LPS+L-Ser1).” for “4 (LPS+Gly2).”
as §3

[4] = tested on: Family with sequence similarity 107 member a (Fam107a) gene; assay: Hippocampal gene expression level by RNA-seq (TPM), Fam107a; details: oral once a day for 13 days (Example 1 3 g/kg, Comp. Ex. 4 2 g/kg, Comp. Ex. 5 1 g/kg); Dunnett; p<0.05 for Example 1
Description: as §1, §2
as §2, with “5” for “4”, “0.1” for “0.2”, “(1” for “(2”, “5 (LPS+L-Ser1).” for “4 (LPS+Gly2).”
as §3

[5] = tested on: Sonic hedgehog (Shh) gene; assay: Hippocampal gene expression level by RNA-seq (TPM), Shh; details: oral once a day for 13 days (Example 1 3 g/kg, Comp. Ex. 4 2 g/kg, Comp. Ex. 5 1 g/kg); Dunnett; p<0.05 for Example 1
Description: as §1, §2
as §2, with “5” for “4”, “0.1” for “0.2”, “(1” for “(2”, “5 (LPS+L-Ser1).” for “4 (LPS+Gly2).”
as §3

[6] = tested on: learning and/or memory functions of C57Bl/6j mice (LPS-induced learning and/or memory disorder model); assay: Novel object recognition test in LPS-induced learning and/or memory disorder model (Experimental Example 1); details: 3 g/kg body weight oral once a day for 13 days; LPS 250 μg/kg i.p. day 4 to 10; Tukey; Example 1 p<0.05
Description: To the control LPS group was orally administered 10 mL of distilled water per kg of mouse body weight once a day for 13 consecutive days.
as §2, with “2” for “4”, “distilled water” for “0.5 wt % methylcellulose aqueous solution”, “0.3” for “0.2”, “(3” for “(2”, “2 (LPS+Gly3). […]” for “4 (LPS+Gly2).”
During the training trial, the ratio (%) of the time of contact with object A1 or A2 with a shorter contact time to the total time of contact with the two objects (A1 and A2) placed in the experimental arena was calculated.
During the retention trial, the ratio (%) of the time of contact with object B to the total time of contact with the two objects (A1 and B, or A2 and B) placed in the experimental arena was determined. […]

NCC(=O)O [Comparative Example 4, glycine]
expression of the Gal gene in hippocampus vs solvent alone (LPS) [1]: significant changes in the expression levels of genes were not observed
expression of the Tshr gene in hippocampus vs solvent alone (LPS) [2]: significant changes in the expression levels of genes were not observed
expression of the Dbp gene in hippocampus vs solvent alone (LPS) [3]: significant changes in the expression levels of genes were not observed
expression of the Fam107a gene in hippocampus vs solvent alone (LPS) [4]: significant changes in the expression levels of genes were not observed
expression of the Shh gene in hippocampus vs solvent alone (LPS) [5]: significant changes in the expression levels of genes were not observed

NCC(=O)O [Comparative Example 2, glycine]
RI value (%) during the retention trial, compared with the group orally administered with distilled water (LPS) [6]: significant difference was not observed

N[C@@H](CO)C(=O)O [Comparative Example 5, L-serine]
expression of the Gal gene in hippocampus vs solvent alone (LPS) [1]: significant changes in the expression levels of genes were not observed
expression of the Tshr gene in hippocampus vs solvent alone (LPS) [2]: significant changes in the expression levels of genes were not observed
expression of the Dbp gene in hippocampus vs solvent alone (LPS) [3]: significant changes in the expression levels of genes were not observed
expression of the Fam107a gene in hippocampus vs solvent alone (LPS) [4]: significant changes in the expression levels of genes were not observed
expression of the Shh gene in hippocampus vs solvent alone (LPS) [5]: significant changes in the expression levels of genes were not observed
